Tests used:
[1] = tested on: Stat5; assay: In vitro Stat5 DNA-binding activity assay, EMSA with MGFe probe; design: species or system mouse; conditions: pre-incubated 30 min before MGFe probe
Procedure: (§1) FIGS. 1A-1E. Inhibition of in vitro Stat3 DNA-binding activity by a platinum complex. Nuclear extracts or cell lysates containing activated Stat1, Stat3 and Stat5, or E2F1 prepared from NIH3T3/hEGFR that are stimulated with EGF or Sf-9 insect cells that are infected with baculovirus expressing Stat1, Stat3, Stat5, or E2F1, respectively, were treated with or without the indicated concentrations of platinum complex, PLATINUM-401 or Cisplatin, for 30 min at room temperature prior to incubation with radiolabeled oligonucleotide probes, and subjected to EMSA analysis. (FIG. 1A) (i) Stat1 and Stat3 binding activities to hSIE probe, (ii) Stat1 and Stat5 binding activities to MGFe probe, and (iii) plot of % oligonucleotide probe-STAT:STAT complexes versus concentration of PLATINUM-401. […] Positions of STAT: STAT-DNA complexes in gel are labeled. In (A) to (C), the control lanes represent DMSO (vehicle)-treatment.
Nuclear extract preparation and gel shift assays—Nuclear extract preparation from NIH3T3 stimulated by rhIL-6, NIH3T3/hEGFR stimulated by rhEGF, v-Src-transformed fibroblasts (NIH3T3/v-Src) or tumor cell lines and electrophoretic mobility shift assay were carried out as previously described (Turkson et al., 1998; Garcia et al., 1997; Yu et al., 1995). […]

[2] = biological target: T1, Stat1 (Mus musculus, UniProt P42225); assay: In vitro Stat1 DNA-binding activity assay, EMSA with hSIE or MGFe probe
T1 construct: Nuclear extract preparation from NIH3T3 stimulated by rhIL-6, NIH3T3/hEGFR stimulated by rhEGF; endogenous in cells; host or cells: NIH3T3/hEGFR fibroblasts stimulated with rhEGF (nuclear extract)
T1 sequence (P42225 2-749 limits assumed): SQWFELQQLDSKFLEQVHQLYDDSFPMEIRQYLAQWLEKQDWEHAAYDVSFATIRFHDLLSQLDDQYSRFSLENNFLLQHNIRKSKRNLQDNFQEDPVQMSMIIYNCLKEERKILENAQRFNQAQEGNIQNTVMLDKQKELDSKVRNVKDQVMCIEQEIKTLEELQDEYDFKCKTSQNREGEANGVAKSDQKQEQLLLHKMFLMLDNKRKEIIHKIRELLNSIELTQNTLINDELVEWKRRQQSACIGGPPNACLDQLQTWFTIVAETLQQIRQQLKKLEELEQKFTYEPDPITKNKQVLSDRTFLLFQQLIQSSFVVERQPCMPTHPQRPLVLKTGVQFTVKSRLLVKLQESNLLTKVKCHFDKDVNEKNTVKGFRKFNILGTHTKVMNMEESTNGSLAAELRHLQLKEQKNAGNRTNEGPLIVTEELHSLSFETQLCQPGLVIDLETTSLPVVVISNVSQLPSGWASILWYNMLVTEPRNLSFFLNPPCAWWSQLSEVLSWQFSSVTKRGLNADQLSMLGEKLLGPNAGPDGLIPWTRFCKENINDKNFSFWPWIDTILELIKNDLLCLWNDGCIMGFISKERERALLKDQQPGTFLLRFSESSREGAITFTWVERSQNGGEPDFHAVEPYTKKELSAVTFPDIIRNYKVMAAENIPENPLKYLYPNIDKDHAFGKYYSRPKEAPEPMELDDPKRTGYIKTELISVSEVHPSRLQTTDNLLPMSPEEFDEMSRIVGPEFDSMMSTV
Procedure: as §1
Nuclear extract preparation and gel shift assays—Nuclear extract preparation from NIH3T3 stimulated by rhIL-6, NIH3T3/hEGFR stimulated by rhEGF, v-Src-transformed fibroblasts (NIH3T3/v-Src) or tumor cell lines and electrophoretic mobility shift assay were carried out as previously described (Turkson et al., 1998; Garcia et al., 1997; Yu et al., 1995). The ^32P-labeled oligonucleotide probes used are hSIE (high affinity sis-inducible element from the c-fos gene, m67 variant, 5′-[…]) (SEQ ID NO:1) that binds Stat1 and Stat3 (Garcia et al., 1997; Wagner et al., 1990) and MGFe (mammary gland factor element from the bovine β-casein gene promoter, 5′-AGATTTCTAGGAATTCAA) (SEQ ID NO:2) for Stat1 and Stat5 binding (49,50). Except where indicated, inhibitor compound was pre-incubated with the nuclear extract for 30 min at room temperature prior to incubation with radiolabeled probe.
Compounds from the NCI 2000 diversity set were screened for inhibition of Stat3 signaling in an in vitro DNA-binding activity assay based on analysis by electrophoretic mobility shift assay (EMSA). […]

In the case of `CC(O)CN1CCN(CC(C)O)CC1` (stereo not drawn) [PLATINUM-401], the “effect on DNA-binding activity of Stat5:Stat5 dimer” value [1] is reported as “does not significantly affect”, the IC50 [2] is reported as 4.1 µM and the “effect on DNA-binding activity of Stat1:Stat1 homodimer” value ([2]; pre-incubated 30 min before probe) is reported as “to a lesser extent”.

— patent US11571418B2, “Platinum compounds that inhibit constitutive STAT3 signaling and induce cell cycle arrest and apoptosis of malignant cells” (H. LEE MOFFITT CANCER CENTER AND RESEARCH INSTITUTE, INC., priority 2011, dated 2023)
